Results on 3 compounds are retold here after patent publication US5100647A, “Method and formulations for the therapy of cystic fibrosis, Bartter's syndrome and secretory diarrheas, and for diuretic treatment” (The Trustees of the University of Pennsylvania, priority 1990, dated 1992).

Structures can show the parent of a compound that is named as a salt. Where two headings read alike, the source gives them in different places.

The conditions of data set [1]: cited from earlier work.
Data set [2] has as its system potassium conductance of pancreatic beta cells. The note with it: cited from earlier work.
The conditions of data set [3]: cited from earlier work. The source holds these as a separate data set.
The subject of data set [4] is chloride channel. The data set is described as follows: whole-cell patch clamp of chloride channel current in isolated cells from a cultured kidney cell line. The source says: Using isolated cells from a cultured kidney cell line, we tested the effects of various doses of Sparteine applied to the interior and exterior of the cell on current through the chloride channel as measured with standard patch clamp electrophysiologic techniques.
On the technique in general: The patch-clamp technique gives a direct electrical read-out from membranes.

Data set [5] deals with chloride conductance of CF/T43 cells. Kind of data set: whole-cell chloride current in CF/T43 cystic fibrosis airway epithelial cells. Type of data set: cell-based, human. As for the experimental part: An aliquot of cells from a cell line, CF/T43, derived from airway epithelia from a patient with cystic fibrosis were used.
Data were obtained using internal and external solutions as described by McCann, Li and Welsh in studies of whole cell ICI in normal human airway epithelial cells so as to be able to compare our data with theirs. The internal solutions are cesium-based providing a minimal internal calcium concentration (nominally 0-10 nM, with EGTA) and the external solution is sodium-based with symmetrical CI concentrations of 140 mM. No cyclic nucleotides are included in the solutions and amiloride is added to block the sodium conductance.

For data set [6], the system named is potassium channel. The note with it: requires millimolar concentrations; cited from earlier work.
Data set [7] concerns the target sodium channels (Cavia porcellus, UniProt A0A286Y3I8). The note with it: requires millimolar concentrations; cited from earlier work.

On to `C1CCN2C[C@@H]3C[C@@H](CN4CCCC[C@@H]34)[C@H]2C1` [Sparteine sulfate], for which the insulin secretion entry was “enhance insulin secretion” in data set [1] (healthy human beings) and “significant increase in insulin secretion” in data set [1] (non-diabetic obese individuals, intravenous administration). In data set [1] (insulin-dependent diabetics), the glucagon secretion entry is listed as “increase glucagon secretion”. Besides, the “potassium conductance of pancreatic beta cells” value in data set [2] is given as “decreases the potassium conductance”. Also, the “water solubility and stability” value in data set [3] is “water soluble and stable”.
For the compound `C1CCN2CC3CC(CN4CCCCC34)C2C1` (stereo not drawn) [Sparteine, dodecahydro-7,14-methano-2H,6H-di-pyrido[1,2-a:1',2'-e][1,5]diazocine], in data set [4] (Sparteine 0.1, 50 and 500 μM), the “chloride current relative to the control value” was 10-20 X. Moreover, the “peak current through the chloride channel” value in data set [4] (Sparteine 0.1, 50 and 500 μM, cells dialyzed with ATP, no cAMP, 10 nM calcium, depolarized to +70 mV from holding potential -45 mV) is 80-200 μA/cm^2. For the same compound, the “time course of the activated current with increasing dose” value in data set [4] (above 0.1 μM) is “increasingly rapid decline in the activated current”. In addition, in data set [4] (external, 0.1 to 10 nM), the “effect of externally applied compound on chloride current” value is given as “marked augmentation of the chloride current”. Moreover, the “effect on the chloride channel at higher concentrations” value in data set [4] (higher (micromolar-millimolar) concentrations) is reported as “potent inhibitor”. Besides, the “effect on the chloride channel at low concentrations” value in data set [4] (low (pico-nanomolar) concentrations) is reported as “very potent activator”. The current amplitude result in data set [5] (external 0.1 nM, no cyclic nucleotides, minimal internal calcium, amiloride present) is reported as “marked increase in current amplitude”. The “reversal potential of the induced current” value in data set [5] (external 0.1 nM, symmetrical Cl 140 mM) came out at 0 mV. Moreover, the “induction of chloride current in cystic fibrosis cells” value in data set [5] (pM, absence of cytosolic Ca^2+ and cyclic nucleotides) is given as “induces a chloride current”. The “reversibility of the activated current” value in data set [5] (washout) was “reversible”. Further, the “action on olfactory tract axons” value in data set [6] is “potassium channel blocker”. For the same compound, the “antiarrhythmic classification due to effects on sodium channels” value in data set [7] is on record as “Class 1 cardiac antiarrhythmic”.
Consider calcium, for which the “maximum chloride current with known activator added to the internal solution” value in data set [4] (depolarized to +70 mV from -45 mV) is listed as 40-50.
